Tested on in one data set: not given
Assay: not given
Details: not given
What is called melting point is the temperature of the solid-liquid transition. In the case of `CCn1c(C(NS(=O)(=O)c2ccc3c(Cl)cccc3c2)c2ccccc2)cnc1Oc1ccc(F)cc1` (centres unmarked) [Compound 202], the melting point was 171.5 to 172.5 °C.
On the same count and under the same terms, under `CCn1c(C(C)NS(=O)(=O)c2ccc(Cl)c(Cl)c2)cnc1Oc1ccc(OC)cc1` (centres unmarked) [Compound 203] stands 146.5 to 148 °C.
`CCn1c(C(C)NS(=O)(=O)c2ccc(Cl)c(Cl)c2)cnc1Oc1ccccc1` (centres unmarked) [Compound 204] had a melting point of 166.5 to 167.5 °C.
As to `CCn1c(C(Cc2ccc(Cl)cc2)NS(=O)(=O)c2ccc(Cl)c(Cl)c2)cnc1Oc1ccc(F)cc1` (centres unmarked) [Compound 205], the melting point lay within 155.5 to 156.5 °C.
Molecule `CCn1c(C(C)NS(=O)(=O)c2ccc(Cl)c(Cl)c2)cnc1Oc1ccc2ccccc2c1` (centres unmarked) [Compound 206] gave a melting point of 172 to 173 °C.
In turn, `CCn1c(C(C)NS(=O)(=O)c2ccc(Cl)c(Cl)c2)cnc1Oc1cccc(C2CCN(C)CC2)c1` (centres unmarked) [Compound 207] displayed a melting point of 161 to 163.5 °C.
For the molecule `CCn1c(C(C)NS(=O)(=O)c2ccc(Cl)c(Cl)c2)cnc1Oc1cccc(N2CCCCC2)c1` (centres unmarked) [Compound 208], the melting point was in the range of 169.5 to 170.5 °C.
Turning to `CCn1c(C(C)NS(=O)(=O)c2ccc(Cl)c(Cl)c2)cnc1Oc1cccc(-n2ccnc2)c1` (centres unmarked) [Compound 209], the melting point fell in the range of 170 to 171 °C.
As to `CCn1c(CNS(=O)(=O)c2ccc(Cl)c(Cl)c2)cnc1Oc1ccc(F)cc1` [Compound 210], the melting point fell in the range of 154 to 155 °C.
`CC(NS(=O)(=O)c1ccc(Cl)c(Cl)c1)c1cnc(Oc2ccc(F)cc2)n1C` (centres unmarked) [Compound 211] yielded a melting point of 179.5 to 180.5 °C.
Consider `CC(NS(=O)(=O)c1ccc2c(Cl)cccc2c1)c1cnc(Oc2ccc(F)cc2)n1C` (centres unmarked) [Compound 212], for which the melting point lay within 134 to 135 °C.
Turning to `CCn1c(C(C)NS(=O)(=O)c2ccc(Cl)c(Cl)c2)cnc1Oc1ccc2ccncc2c1` (centres unmarked) [Compound 213], the melting point lay in the range of 185.5 to 187.5 °C.
`CCn1c(C(C)NS(=O)(=O)c2ccc(Cl)c(Cl)c2)cnc1Oc1ccc(OCCN2CCOCC2)cc1` (centres unmarked) [Compound 214] showed a melting point of 167 to 168 °C.
Molecule `CCn1c(C(C)NS(=O)(=O)c2ccc(Cl)c(Cl)c2)cnc1Oc1cc(C)nc(C)c1` (centres unmarked) [Compound 215] returned a melting point of 179 to 180 °C.
The same measure, in the same setting: under `CCn1c(C(C)NS(=O)(=O)c2ccc(Cl)c(Cl)c2)cnc1OC1CCCCC1` (centres unmarked) [Compound 216] stands 180 to 181 °C; under `CCn1c(C(C)NS(=O)(=O)c2ccc(Cl)c(Cl)c2)cnc1Oc1cc(C(F)(F)F)n(C)n1` (centres unmarked) [Compound 217], 146 to 148 °C.
On the same count and under the same terms, the same measure for `CCn1c(C(C)NS(=O)(=O)c2ccc(Cl)c(Cl)c2)cnc1Oc1ccc(C)c(C)c1` (centres unmarked) [Compound 218]: 102.5 to 107.5 °C; for `CCOc1ncc(C(C)NS(=O)(=O)c2ccc(Cl)c(Cl)c2)n1CC` (centres unmarked) [Compound 219]: 195 to 196 °C; for `CCCCCCC(NS(=O)(=O)c1ccc(Cl)c(Cl)c1)c1cnc(Oc2ccc(F)cc2)n1CC` (centres unmarked) [Compound 220]: 79 to 80 °C.

The target of another data set is T1, human Edg-1 (S1P1) (Homo sapiens, UniProt P21453).
T1 construct: expressed in transfected cells; host or cells: HEK-293
T1 sequence (P21453 whole entry): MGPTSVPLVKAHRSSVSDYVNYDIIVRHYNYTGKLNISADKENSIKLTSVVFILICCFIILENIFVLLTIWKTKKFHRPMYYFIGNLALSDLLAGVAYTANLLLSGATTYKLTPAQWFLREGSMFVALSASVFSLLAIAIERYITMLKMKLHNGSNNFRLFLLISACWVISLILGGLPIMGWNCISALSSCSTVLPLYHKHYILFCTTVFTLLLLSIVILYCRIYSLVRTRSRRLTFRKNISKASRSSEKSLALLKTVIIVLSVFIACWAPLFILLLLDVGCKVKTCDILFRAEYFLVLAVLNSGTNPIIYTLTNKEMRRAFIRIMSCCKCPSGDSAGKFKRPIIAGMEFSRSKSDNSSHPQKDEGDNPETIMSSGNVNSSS
As to the kind of experiment: S1P1 binding inhibition test (membrane, [33P]-S1P). Particulars: compound 10 μM; [33P]-S1P 0.1 nM; human Edg-1 (S1P1) HEK-293 membrane fraction; read-out: Binding test (membrane) % inhibition (10 μM). The method, boiled down:
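Membranes from Edg-1 (S1P1)-expressing HEK-293 cells incubated 1 h at 30 °C in pH 7.4 Tris buffer with 0.1 nM [33P]-S1P and compound (10^−5 M, or various concentrations for IC50). Filter-bound radioactivity counted; background from non-transfected HEK-293 membranes; inhibition = [1−(A−C)/(B−C)]×100.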
The term inhibition denotes the relative decrease from the control value, in per cent. With `CCn1c(C(NS(=O)(=O)c2ccc3c(Cl)cccc3c2)c2ccccc2)cnc1Oc1ccc(F)cc1` (centres unmarked) [Compound 202], the inhibition at 10 µM was found to be 69.3%.
`CCn1c(C(C)NS(=O)(=O)c2ccc(Cl)c(Cl)c2)cnc1Oc1ccc(OC)cc1` (centres unmarked) [Compound 203]: the inhibition at 10 µM worked out at 102%.
With `CCn1c(C(C)NS(=O)(=O)c2ccc(Cl)c(Cl)c2)cnc1Oc1ccccc1` (centres unmarked) [Compound 204], the inhibition at 10 µM stood at 95.7%.
With `CCn1c(C(Cc2ccc(Cl)cc2)NS(=O)(=O)c2ccc(Cl)c(Cl)c2)cnc1Oc1ccc(F)cc1` (centres unmarked) [Compound 205], the inhibition at 10 µM amounted to 94.4%.
Still for that read-out and setting: under `CCn1c(C(C)NS(=O)(=O)c2ccc(Cl)c(Cl)c2)cnc1Oc1ccc2ccccc2c1` (centres unmarked) [Compound 206] stands 98.5%; under `CCn1c(C(C)NS(=O)(=O)c2ccc(Cl)c(Cl)c2)cnc1Oc1cccc(C2CCN(C)CC2)c1` (centres unmarked) [Compound 207], 101%; under `CCn1c(C(C)NS(=O)(=O)c2ccc(Cl)c(Cl)c2)cnc1Oc1cccc(N2CCCCC2)c1` (centres unmarked) [Compound 208], 99.6%.
Consider `CCn1c(C(C)NS(=O)(=O)c2ccc(Cl)c(Cl)c2)cnc1Oc1cccc(-n2ccnc2)c1` (centres unmarked) [Compound 209], for which the inhibition at 10 µM stood at 98.9%.
Same read-out and setting: under `CCn1c(CNS(=O)(=O)c2ccc(Cl)c(Cl)c2)cnc1Oc1ccc(F)cc1` [Compound 210] stands 90.6%; under `CC(NS(=O)(=O)c1ccc(Cl)c(Cl)c1)c1cnc(Oc2ccc(F)cc2)n1C` (centres unmarked) [Compound 211], 92.2%.
`CC(NS(=O)(=O)c1ccc2c(Cl)cccc2c1)c1cnc(Oc2ccc(F)cc2)n1C` (centres unmarked) [Compound 212]: the inhibition at 10 µM worked out at 92%.
Take `CCn1c(C(C)NS(=O)(=O)c2ccc(Cl)c(Cl)c2)cnc1Oc1ccc2ccncc2c1` (centres unmarked) [Compound 213]: the inhibition at 10 µM came to 99.6%.
In the case of `CCn1c(C(C)NS(=O)(=O)c2ccc(Cl)c(Cl)c2)cnc1Oc1ccc(OCCN2CCOCC2)cc1` (centres unmarked) [Compound 214], the inhibition at 10 µM was determined as 102%.
As for `CCn1c(C(C)NS(=O)(=O)c2ccc(Cl)c(Cl)c2)cnc1Oc1cc(C)nc(C)c1` (centres unmarked) [Compound 215], the inhibition at 10 µM is 100%.
On the same count and under the same terms, under `CCn1c(C(C)NS(=O)(=O)c2ccc(Cl)c(Cl)c2)cnc1OC1CCCCC1` (centres unmarked) [Compound 216] stands 92%; under `CCn1c(C(C)NS(=O)(=O)c2ccc(Cl)c(Cl)c2)cnc1Oc1cc(C(F)(F)F)n(C)n1` (centres unmarked) [Compound 217], 96.3%; under `CCn1c(C(C)NS(=O)(=O)c2ccc(Cl)c(Cl)c2)cnc1Oc1ccc(C)c(C)c1` (centres unmarked) [Compound 218], 101%.
The same measure, in the same setting: the same measure for `CCOc1ncc(C(C)NS(=O)(=O)c2ccc(Cl)c(Cl)c2)n1CC` (centres unmarked) [Compound 219]: 83.2%; for `CCCCCCC(NS(=O)(=O)c1ccc(Cl)c(Cl)c1)c1cnc(Oc2ccc(F)cc2)n1CC` (centres unmarked) [Compound 220]: 68.3%.

The data set is the same for the next values; noted with them: membrane system binding test, various concentrations.
In general, IC50 refers to the point on the concentration scale where inhibition reaches its midpoint. Read a high IC50 as weaker potency. `CCn1c(C(C)NS(=O)(=O)c2ccc(Cl)c(Cl)c2)cnc1Oc1ccc(OC)cc1` (centres unmarked) [Compound 203] yielded an IC50 of 23.5 nM.
In turn, `CCn1c(C(C)NS(=O)(=O)c2ccc(Cl)c(Cl)c2)cnc1Oc1cccc(C2CCN(C)CC2)c1` (centres unmarked) [Compound 207] returned an IC50 of 18.2 nM.
Molecule `CCn1c(C(C)NS(=O)(=O)c2ccc(Cl)c(Cl)c2)cnc1Oc1cccc(N2CCCCC2)c1` (centres unmarked) [Compound 208] had an IC50 of no more than 15 nM.
`CCn1c(C(C)NS(=O)(=O)c2ccc(Cl)c(Cl)c2)cnc1Oc1cccc(-n2ccnc2)c1` (centres unmarked) [Compound 209]: the IC50 was determined as 42 nM.
The molecule `CCn1c(C(C)NS(=O)(=O)c2ccc(Cl)c(Cl)c2)cnc1Oc1ccc2ccncc2c1` (centres unmarked) [Compound 213] came in with an IC50 of 49 nM.
On the same count and under the same terms, under `CCn1c(C(C)NS(=O)(=O)c2ccc(Cl)c(Cl)c2)cnc1Oc1ccc(OCCN2CCOCC2)cc1` (centres unmarked) [Compound 214] stands no more than 70 nM.
